Key:
[1] = system: MM.1S-PD-L1 multiple myeloma cells; experiment: Subcutaneous MM.1S-PD-L1 multiple myeloma mouse model, tumor volume; format: in vivo
Description: MM.1S multiple myeloma cells were engineered to express PD-L1 and are referred to as MM.1S-PD-L1. Pre-activated and expanded T cells (20×10^6) were administered on Day 19 after MM.1S-PDL1 tumor cell inoculation subcutaneously (SC). BCMAxCD3 bispecific (0.3 or 1 mg/kg) or negative bispecific (1 mg/kg) was administered IV on Day 21 and dosed Q7Dx3. Anti-PD-1 mAb was administered at 5 mg/kg intraperitoneally (IP) twice a week starting on Day 21. Tumor measurements were recorded 2 to 3 times a week using digital calipers. N (at study start) is 5-12 animals per group.

[2] = system: adult patients with advanced multiple myeloma; experiment: Phase 1 clinical study NCT03269136, patient response per IMWG criteria; format: in vivo, human
Text: This Example illustrates an ongoing Phase 1 open-label, multicenter clinical study of PF-06863135 (BCMA×CD3 bispecific) as monotherapy and in combination with sasanlimab, lenalidomide or pomalidomide, in adult patients with advanced multiple myeloma who have relapsed from or are refractory to standard therapy. The study has been registered on ClinicalTrials.gov with identifier NCT03269136 and was first posted August 2017. Study results for Part 1 of the trial and additional arms for the study are described in this Example.
Part 1 of the Study is the […] single agent dose escalation arm at the dose levels of 0.1, 0.3, 1, 3, 10, 30, and 50 μg/kg Q1W by intravenous (IV) administration, and at the dose levels of 80, 130, 215, 360, 600 and 1000 μg/kg Q1W by subcutaneous (SC) administration. Upon reaching maximum tolerated dose (MTD)/maximum administered dose (MAD), patients can be treated at a dose level selected from the foregoing dose levels described in this paragraph, and below the MTD/MAD fora Q2W administration, both IV and SC, to further support the recommended phase 2 dose (RP2D) decision. For the study, dose limiting toxicity observation period is set at 21 days for Q1W dosing and 28 days for Q2W dosing. The treatment cycle, aka cycle, for Q1W dosing would be 3 weeks, and for Q2W dosing would be four weeks.
Clinical Outcome of Part 1 of the Study. As of 15 Apr. 2020, a total of 23 patients were enrolled in Part 1 of the study and had been treated with PF-06863135 administered intravenously (IV) at 0.1 (N=2), 0.3 (N=3), 1 (N=2), 3 (N=3), 10 (N=2), 30 (N=5), and 50 (N=6) μg/kg. As of Aug. 21, 2020, a total of 30 patients were enrolled in Part 1 of the study and had been treated with PF-06863135 administered subcutaneously (SC) at 80 (N=6), 130 (N=4), 215 (N=4), 360 (N=4), 600 (N=6) and 1000 (N=6) μg/kg. Safety and efficacy data were available for in 23 IV and 30 SC treated patients per IMWG (International Myeloma Working Group) criteria.
Part 1.1 of the Study is an alternative maintenance dose escalation arm for single agent PF-06863135. If excessive toxicity occurs or the maximum tolerated dose (MTD)/maximum administered dose (MAD) is reached at a dose level that is earlier than desired in Part 1 of the study described above, a priming dose will be administered one week prior to the day 1 cycle 1 administration of the dose (maintenance dose) at this dose level and for all subsequent dose levels in the dose escalation that may be initiated for Part 1.1. The priming dosing will be at a lower dose level than the maintenance dose.
Clinical outcome of Part 1.1 of the Study. As of Feb. 4, 2021, a total of 20 patients were enrolled and treatment in Part 1.1 of the Study, with cohort of 7 patients at a 600 μg/kg priming dose followed by 1000 μg/kg Q1W dosing, and a cohort of 13 patients at a 600 μg/kg priming dose followed by 1000 μg/kg Q2W dosing. The CRS in these two cohorts is described in Table 13. Introducing of priming dose decreased medium duration of CRS by 50%, from 4 days to 2 days. The dose frequency in part 1.1 of the study (Q1W v. Q2W) had no impact on the CRS. Patient response of Part 1.1 of the Study is described in Table 14.

[3] = 600 μg/kg priming, 1000 μg/kg Q1W SC, N = 7
[4] = 600 μg/kg priming, 1000 μg/kg Q2W SC, N = 13

Question: For “PF-06863135: heterodimeric humanized full-length bispecific antibody, one BCMA binding arm and one CD3 binding arm, modified human IgG2Δa Fc”, which “Tumor Volume ± SEM” value ([1]; day 14 post inoculation (before dosing), bispecific 0.3 mg/kg IV Q7Dx3 from Day 21, anti-PD-1 5 mg/kg IP twice a week) is on record?
Answer: 34.4 ± 9.5 mm^3

Question: And the “Tumor Volume ± SEM” value ([1]; day 14 post inoculation (before dosing), bispecific 1 mg/kg IV Q7Dx3 from Day 21, anti-PD-1 5 mg/kg IP twice a week)?
Answer: 26.4 ± 7.5 mm^3

Question: What about the “Tumor Volume ± SEM” value ([1]; day 18 post inoculation (before dosing), bispecific 0.3 mg/kg IV Q7Dx3 from Day 21, anti-PD-1 5 mg/kg IP twice a week) of the same substance?
Answer: 91.6 ± 18 mm^3

Question: What about the “Tumor Volume ± SEM” value ([1]; day 18 post inoculation (before dosing), bispecific 1 mg/kg IV Q7Dx3 from Day 21, anti-PD-1 5 mg/kg IP twice a week) of the same substance?
Answer: 92 ± 17.1 mm^3

Question: What about the “Tumor Volume ± SEM” value ([1]; day 20 post inoculation (before dosing), bispecific 0.3 mg/kg IV Q7Dx3 from Day 21, anti-PD-1 5 mg/kg IP twice a week) of the same substance?
Answer: 122.5 ± 20.7 mm^3

Question: And the “Tumor Volume ± SEM” value ([1]; day 20 post inoculation (before dosing), bispecific 1 mg/kg IV Q7Dx3 from Day 21, anti-PD-1 5 mg/kg IP twice a week)?
Answer: 130.7 ± 24.6 mm^3

Question: What about the “Tumor Volume ± SEM” value ([1]; day 25 post inoculation, bispecific 0.3 mg/kg IV Q7Dx3 from Day 21, anti-PD-1 5 mg/kg IP twice a week) of the same substance?
Answer: 403 ± 59 mm^3

Question: And the “Tumor Volume ± SEM” value ([1]; day 25 post inoculation, bispecific 1 mg/kg IV Q7Dx3 from Day 21, anti-PD-1 5 mg/kg IP twice a week)?
Answer: 601.1 ± 70 mm^3

Question: And the “Tumor Volume ± SEM” value ([1]; day 28 post inoculation, bispecific 0.3 mg/kg IV Q7Dx3 from Day 21, anti-PD-1 5 mg/kg IP twice a week)?
Answer: 403.3 ± 67.6 mm^3

Question: What about the “Tumor Volume ± SEM” value ([1]; day 28 post inoculation, bispecific 1 mg/kg IV Q7Dx3 from Day 21, anti-PD-1 5 mg/kg IP twice a week) of the same substance?
Answer: 482.9 ± 32.6 mm^3

Question: And the “Tumor Volume ± SEM” value ([1]; day 32 post inoculation, bispecific 0.3 mg/kg IV Q7Dx3 from Day 21, anti-PD-1 5 mg/kg IP twice a week)?
Answer: 603.6 ± 151.6 mm^3

Question: And the “Tumor Volume ± SEM” value ([1]; day 32 post inoculation, bispecific 1 mg/kg IV Q7Dx3 from Day 21, anti-PD-1 5 mg/kg IP twice a week)?
Answer: 410.5 ± 82.7 mm^3

Question: What about the “Tumor Volume ± SEM” value ([1]; day 35 post inoculation, bispecific 0.3 mg/kg IV Q7Dx3 from Day 21, anti-PD-1 5 mg/kg IP twice a week) of the same substance?
Answer: 835.1 ± 77.2 mm^3

Question: And the “Tumor Volume ± SEM” value ([1]; day 35 post inoculation, bispecific 1 mg/kg IV Q7Dx3 from Day 21, anti-PD-1 5 mg/kg IP twice a week)?
Answer: 627.9 ± 111.8 mm^3

Question: What about the “Tumor Volume ± SEM” value ([1]; day 39 post inoculation, bispecific 0.3 mg/kg IV Q7Dx3 from Day 21, anti-PD-1 5 mg/kg IP twice a week) of the same substance?
Answer: 1569.3 ± 151.8 mm^3

Question: What about the “Tumor Volume ± SEM” value ([1]; day 39 post inoculation, bispecific 1 mg/kg IV Q7Dx3 from Day 21, anti-PD-1 5 mg/kg IP twice a week) of the same substance?
Answer: 1436.8 ± 276.4 mm^3

Question: And the “patients achieving a complete response” value ([2]; 50 μg/kg IV)?
Answer: 1 patient

Question: What about the “OR (percent)” value ([2]; 215 μg/kg SC, N = 4) of the same substance?
Answer: (75%)

Question: What about the “OR (responders/patients)” value ([2]; 215 μg/kg SC, N = 4) of the same substance?
Answer: 3/4

Question: What about the “PR (number of patients)” value ([2]; 215 μg/kg SC, N = 4) of the same substance?
Answer: 1

Question: What about the “sCR (number of patients)” value ([2]; 215 μg/kg SC, N = 4) of the same substance?
Answer: 2

Question: What about the “OR (percent)” value ([2]; 360 μg/kg SC, N = 4) of the same substance?
Answer: (75%)

Question: What about the “OR (responders/patients)” value ([2]; 360 μg/kg SC, N = 4) of the same substance?
Answer: 3/4

Question: And the “PD (number of patients)” value ([2]; 360 μg/kg SC, N = 4)?
Answer: 1

Question: And the “VGPR (number of patients)” value ([2]; 360 μg/kg SC, N = 4)?
Answer: 2

Question: And the “sCR (number of patients)” value ([2]; 360 μg/kg SC, N = 4)?
Answer: 1

Question: What about the “OR (percent)” value ([2]; 600 μg/kg SC, N = 6) of the same substance?
Answer: (67%)

Question: And the “OR (responders/patients)” value ([2]; 600 μg/kg SC, N = 6)?
Answer: 4/6

Question: And the “PD (number of patients)” value ([2]; 600 μg/kg SC, N = 6)?
Answer: 1

Question: And the “VGPR (number of patients)” value ([2]; 600 μg/kg SC, N = 6)?
Answer: 2

Question: And the “sCR (number of patients)” value ([2]; 600 μg/kg SC, N = 6)?
Answer: 2

Question: What about the “CR (number of patients)” value [2, 3] of the same substance?
Answer: 2

Question: What about the “OR (percent)” value [2, 3] of the same substance?
Answer: (57%)

Question: What about the “OR (responders/patients)” value [2, 3] of the same substance?
Answer: 4/7

Question: And the “PR (number of patients)” value [2, 3]?
Answer: 1

Question: And the “VGPR (number of patients)” value [2, 3]?
Answer: 1

Question: And the “OR (percent)” value [2, 4]?
Answer: (54%)

Question: What about the “OR (responders/patients)” value [2, 4] of the same substance?
Answer: 7/13

Question: What about the “PD (number of patients)” value [2, 4] of the same substance?
Answer: 3

Question: And the “PR (number of patients)” value [2, 4]?
Answer: 3

Question: And the “VGPR (number of patients)” value [2, 4]?
Answer: 4

Question: And the “CR (number of patients)” value ([2]; 1000 μg/kg SC, N = 6)?
Answer: 1

Question: What about the “OR (percent)” value ([2]; 1000 μg/kg SC, N = 6) of the same substance?
Answer: (83%)

Question: And the “OR (responders/patients)” value ([2]; 1000 μg/kg SC, N = 6)?
Answer: 5/6

Question: And the “PD (number of patients)” value ([2]; 1000 μg/kg SC, N = 6)?
Answer: 1

Question: What about the “PR (number of patients)” value ([2]; 1000 μg/kg SC, N = 6) of the same substance?
Answer: 1

Question: And the “VGPR (number of patients)” value ([2]; 1000 μg/kg SC, N = 6)?
Answer: 3

Question: And the clinical efficacy ([2]; 600 and 1000 μg/kg SC)?
Answer: seen in most patients

Question: And the “subjects with best response of stable disease” value ([2]; IV cohorts (0.3-50 μg/kg))?
Answer: Ten

Question: And the “patients achieving a minimal response” value ([2]; IV cohorts, at 3 μg/kg and 50 μg/kg IV)?
Answer: 2 patients
